Test results as given in publication PMC8579695, “The Stringent Response Inhibits 70S Ribosome Formation in Staphylococcus aureus by Impeding GTPase-Ribosome Interactions” (mBio, 2021).

Experiments:
RbgA = RbgA (Staphylococcus aureus, UniProt A0A0H2XK72); test: GTPase activity assay of wild-type and Atto488-labeled RbgA; type: biochemical; details: 100 μM ppGpp, 1 μM GTP, 0.1 μM RA-GTPase, 0.1 μM 70S ribosomes, 37°C, 60 min
Description: To gain further insight into the binding mechanism and how (p)ppGpp reduces the association of RA-GTPases to the ribosomal subunits, we used a stopped-flow technique with fluorescent derivatives of the RA-GTPases (Fig. 3A). Structural predictions of all four RA-GTPases were built by homology modeling using available structures to assess the availability of suitable residues for fluorescence labeling (see Fig. S3A and B) ([43]). Both RbgA and HflX were amenable to covalent linkage to the fluorophore Atto-488 using maleimide chemistry with exposed cysteine residues. […]
Supplementary file : FIG S3 Labeling sites and GTPase activity of Atto488-labelled proteins. […] Enzymatic activity was monitored by TLC and quantified by using ImageQuant. […]
GTPase activity assays were performed as previously described ([10]). Briefly, the ability of proteins to hydrolyze GTP was determined by incubating 100 nM recombinant protein with 100 nM S. aureus 70S ribosomes, 1 μM GTP and 2.78 nM [α-^32P]GTP in 40 mM Tris (pH 7.5), 100 mM NaCl (100 mM KCl for RbgA), and 10 mM MgCl2 at 37°C for the indicated times. […] The radioactive spots were exposed to a BAS-MS imaging plate (Fujifilm) and visualized using an LA 7000 Typhoon PhosphorImager (GE Healthcare), and images were quantified using ImageQuant (GE Healthcare).

[1] = test system: RA-GTPases RsgA, RbgA, Era, and HflX; test: Hydrolysis of pppGpp by the RA-GTPases; type: biochemical, Staphylococcus aureus
Description: It is well characterized that rRNA transcription decreases during the stringent response ([39]). In addition, the GTPase activity of ribosome assembly cofactors is inhibited by (p)ppGpp, both of which contribute to a reduction in mature ribosomes within the cell ([27]). To examine mechanistically how (p)ppGpp-GTPase interactions affect the ability of RA-GTPases to associate with ribosomal subunits, we examined the association of each GTPase to either the 30S or 50S ribosomal subunit in the presence of GDP, GTP, ppGpp, and pppGpp, as well as GMPPNP, a nonhydrolyzable analogue of GTP. […] His-tagged GTPases were preincubated with highly pure, salt-washed 70S S. aureus ribosomes in a low-magnesium buffer to encourage ribosomal subunit dissociation, and the amount of each GTPase associated with each of the subunits was quantified by Western immunoblotting with anti-His antibodies after sucrose gradient separation. […]
GTPase activity assays were performed as previously described ([10]). […] The radioactive spots were exposed to a BAS-MS imaging plate (Fujifilm) and visualized using an LA 7000 Typhoon PhosphorImager (GE Healthcare), and images were quantified using ImageQuant (GE Healthcare).

RbgA, sequence (A0A0H2XK72 entry or part of it): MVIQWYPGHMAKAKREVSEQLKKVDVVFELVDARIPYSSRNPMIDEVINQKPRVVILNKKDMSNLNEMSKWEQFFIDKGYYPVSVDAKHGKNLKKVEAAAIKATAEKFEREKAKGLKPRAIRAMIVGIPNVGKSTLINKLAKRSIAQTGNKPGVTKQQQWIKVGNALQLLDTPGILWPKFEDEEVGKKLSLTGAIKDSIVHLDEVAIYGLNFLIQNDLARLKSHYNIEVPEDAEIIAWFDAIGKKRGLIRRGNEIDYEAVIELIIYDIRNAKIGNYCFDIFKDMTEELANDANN

SMILES | inhibition of GTPase activity of Atto488-labeled RbgA (RbgA) | hydrolysis of pppGpp by the four RA-GTPases [1]
Nc1nc2c(ncn2[C@@H]2O[C@H](COP(=O)(O)OP(=O)(O)O)[C@@H](OP(=O)(O)OP(=O)(O)O)[C@H]2O)c(=O)[nH]1 [ppGpp] | can still be inhibited | 
Nc1nc2c(ncn2[C@@H]2O[C@H](COP(=O)(O)OP(=O)(O)OP(=O)(O)O)[C@@H](OP(=O)(O)OP(=O)(O)O)[C@H]2O)c(=O)[nH]1 [pppGpp] |  | unable to hydrolyze
